The values below come from ChEMBL document CHEMBL1201862, “PubChem BioAssay data set” (2004).

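Each compound was tested at five concentrations against cells in 96-well plates for 48 hours. GI50 = concentration required for 50% inhibition of growth.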 Activity calls are given as the source filed them. No stated cut-off is given here; in the data, active = GI50 up to about 1.1 µM and inactive = higher.

Among the test systems are 786-0; A549; ACHN; DU-145; HCC 2998; HOP-92; KM12; LOX IMVI; MDA-MB-231; MOLT-4; Malme-3M; NCI-H23; OVCAR-8; SF-295; SF-539; SK-MEL-28; SK-MEL-5; SNB-19; SR; UO-31.
Assay in all cases: DTP human tumour cell line panel, 48 h

In the case of `O=[N+]([O-])C(=C1Nc2ccccc2N1)C(Cl)=C(Cl)Cl`, the GI50 with 786-0 is 63.4 µM (inactive); with A549, > 100 µM (inactive); with ACHN it was > 100 µM (inactive); with DU-145, > 100 µM (inactive); in the assay on HCC 2998 it was > 100 µM (inactive); with HOP-92, > 100 µM (inactive). Also, the GI50 is > 100 µM (inactive) in the assay with KM12; > 100 µM (inactive) in the assay with LOX IMVI; 24.8 µM (inactive) in the assay with MDA-MB-231; 19.8 µM (inactive) in the assay with MOLT-4; 30.3 µM (inactive) with Malme-3M; 84.5 µM (inactive) in the assay with NCI-H23. Also, the GI50 was 74.5 µM (inactive) in the assay on OVCAR-8; > 100 µM (inactive) in the assay on SF-295; > 100 µM (inactive) in the assay on SF-539; > 100 µM (inactive) in the assay with SK-MEL-28; > 100 µM (inactive) in the assay on SK-MEL-5; > 100 µM (inactive) in the assay on SNB-19. Moreover, the GI50 in the assay on SR was 51.3 µM (inactive); with UO-31, 65 µM (inactive).

For the compound `Cc1[nH]n(-c2ccccc2)c(=O)c1C(N(CCc1ccccc1)C1=NCC(C)S1)(C(F)(F)F)C(F)(F)F` (stereo not given), the GI50 in the assay with 786-0 was 13.9 µM (inactive); in the assay on A549 it was 15.1 µM (inactive); with ACHN, 16.2 µM (inactive); with DU-145, 27.2 µM (inactive); in the assay with HCC 2998, 13.4 µM (inactive); with HOP-92, 0.352 µM (active). In addition, the GI50 in the assay on KM12 is 13.1 µM (inactive); in the assay on LOX IMVI, 0.164 µM (active); with MDA-MB-231, 18.8 µM (inactive); with MOLT-4, 20.5 µM (inactive); in the assay on Malme-3M, 11.1 µM (inactive); in the assay on NCI-H23, 5.16 µM (inactive). Further, the GI50 with SF-295 is 9.02 µM (inactive); with SF-539, 16.7 µM (inactive); in the assay with SK-MEL-28, 16.4 µM (inactive); in the assay with SK-MEL-5 it was 7.71 µM (inactive); in the assay with SNB-19 it was 15.5 µM (inactive); with SR it was 22.3 µM (inactive). Further, the GI50 in the assay on UO-31 was 10.4 µM (inactive).

With `O=C1C2=Cc3ccccc3OC2(O)Oc2cc3ccccc3cc21` (stereo not given), the GI50 in the assay with 786-0 was > 100 µM (inactive); with A549 it was > 100 µM (inactive); with ACHN, 87.9 µM (inactive); in the assay with DU-145, > 100 µM (inactive); in the assay on HCC 2998, 28.1 µM (inactive); with HOP-92 it was 74.3 µM (inactive). In addition, the GI50 was 41.4 µM (inactive) in the assay on KM12; > 100 µM (inactive) with LOX IMVI; > 100 µM (inactive) in the assay with MDA-MB-231; > 100 µM (inactive) in the assay on MOLT-4; > 100 µM (inactive) in the assay on Malme-3M; > 100 µM (inactive) in the assay on NCI-H23. Also, the GI50 was > 100 µM (inactive) in the assay on OVCAR-8; 94.8 µM (inactive) with SF-295; 20 µM (inactive) with SF-539; > 100 µM (inactive) in the assay on SK-MEL-28; > 100 µM (inactive) in the assay with SK-MEL-5; > 100 µM (inactive) with SR.

As to `O=c1oc2ccccc2c(-c2ccc(O)cc2)c1Oc1ccccc1`, the GI50 with 786-0 is 23.1 µM (inactive); with A549, 22.1 µM (inactive); in the assay with ACHN it was 10.2 µM (inactive); in the assay with DU-145, 4.25 µM (inactive); in the assay with HCC 2998, 7.21 µM (inactive); in the assay on HOP-92, 10.2 µM (inactive). The GI50 is 23.6 µM (inactive) with KM12; 9.93 µM (inactive) in the assay on LOX IMVI; 3.17 µM (inactive) in the assay with MDA-MB-231; 28.8 µM (inactive) in the assay on MOLT-4; 2.58 µM (inactive) in the assay with Malme-3M; 6.32 µM (inactive) in the assay with NCI-H23. Also, the GI50 in the assay with SF-295 is 22 µM (inactive); with SF-539, 20.7 µM (inactive); with SK-MEL-28, 18.8 µM (inactive); in the assay on SK-MEL-5 it was 14.1 µM (inactive); in the assay with SNB-19, 17.7 µM (inactive); with SR it was 41.8 µM (inactive). Also, in the assay on UO-31, the GI50 was 7.73 µM (inactive).

For the compound `O=C1NC(NCc2ccc(F)cc2)=N/C1=C\c1ccccc1Cl`, the GI50 in the assay with 786-0 was 11.2 µM (inactive); with A549, 17.2 µM (inactive); with ACHN, 20.7 µM (inactive); in the assay with DU-145, 19.9 µM (inactive); in the assay on HCC 2998, 26.3 µM (inactive); in the assay on HOP-92, 6.97 µM (inactive). For the same compound, the GI50 in the assay with KM12 is 18.1 µM (inactive); with LOX IMVI, 14.7 µM (inactive); in the assay with MDA-MB-231, 17.8 µM (inactive); with MOLT-4, 12.9 µM (inactive); in the assay with Malme-3M it was 16.8 µM (inactive); with OVCAR-8, 14.4 µM (inactive). For the same compound, the GI50 was 17.1 µM (inactive) in the assay with SF-295; 32.1 µM (inactive) with SF-539; 23.6 µM (inactive) in the assay with SK-MEL-28; 13.4 µM (inactive) in the assay with SK-MEL-5; 19.8 µM (inactive) with SNB-19; 14.1 µM (inactive) with SR.

As for `COC(=O)C1(Cc2ccc3c(c2)CCC3)Cc2ccc3c(c2C1O)CCC3` (stereo not given), the GI50 with 786-0 is 14.7 µM (inactive); in the assay on A549 it was 14.1 µM (inactive); with ACHN it was 13 µM (inactive); with DU-145, 11.8 µM (inactive); in the assay on HCC 2998, 17.1 µM (inactive); in the assay with HOP-92, 10.1 µM (inactive). Moreover, the GI50 in the assay with KM12 is 14.8 µM (inactive); in the assay on LOX IMVI, 12.6 µM (inactive); in the assay with MDA-MB-231 it was 12.7 µM (inactive); with MOLT-4, > 100 µM (inactive); with Malme-3M, 12.2 µM (inactive); in the assay on NCI-H23, > 10 µM (inactive). In addition, the GI50 in the assay with OVCAR-8 was 17.3 µM (inactive); in the assay on SF-295, 17.5 µM (inactive); in the assay on SF-539 it was 21.2 µM (inactive); in the assay with SK-MEL-28 it was 14.7 µM (inactive); in the assay on SK-MEL-5, 10.2 µM (inactive); with SR, 12 µM (inactive). For the same compound, in the assay on UO-31, the GI50 is 10.7 µM (inactive).

As to `O=c1[nH]/c(=C/c2ccc(OCc3ccccc3)cn2)c(=O)[nH]/c1=C/c1cccnc1`, the GI50 with 786-0 is 0.474 µM (active); in the assay on A549, 0.804 µM (active); with ACHN, 0.728 µM (active); in the assay on DU-145, 0.585 µM (active); with HCC 2998, 1.19 µM (inactive); with HOP-92, > 35.2 µM (inactive). Further, the GI50 is 0.308 µM (active) with KM12; 1.95 µM (inactive) in the assay on LOX IMVI; 1.92 µM (inactive) with MDA-MB-231; 0.361 µM (active) with MOLT-4; 0.25 µM (active) in the assay with Malme-3M; 0.423 µM (active) in the assay on NCI-H23. For the same compound, the GI50 in the assay on OVCAR-8 is 1.08 µM (active); in the assay with SF-295 it was 0.284 µM (active); in the assay on SF-539, 0.401 µM (active); with SK-MEL-5, 0.226 µM (active); with SNB-19 it was 0.718 µM (active); with SR, 0.5 µM (active).

For the compound `COc1cc2nc(Cl)nc(NS(=O)(=O)c3cc4ccccc4s3)c2cc1OC`, the GI50 in the assay on 786-0 was 35.4 µM (inactive); in the assay with A549, 32 µM (inactive); in the assay on ACHN it was 30.8 µM (inactive); with DU-145, 21.3 µM (inactive); in the assay with HCC 2998, 19 µM (inactive); in the assay on HOP-92, 18 µM (inactive). In addition, the GI50 was 23.3 µM (inactive) in the assay with KM12; 23.3 µM (inactive) with LOX IMVI; 24.9 µM (inactive) in the assay on MDA-MB-231; 32 µM (inactive) in the assay with Malme-3M; 25.7 µM (inactive) with NCI-H23; 33 µM (inactive) in the assay on OVCAR-8. Besides, the GI50 in the assay with SF-295 was 33.8 µM (inactive); with SF-539, 37.2 µM (inactive); with SK-MEL-28, 0.0335 µM (active); in the assay on SK-MEL-5 it was 19.1 µM (inactive); in the assay with SNB-19 it was 21 µM (inactive); in the assay on SR it was 23.4 µM (inactive). In the assay on UO-31, the GI50 is 16.4 µM (inactive).
